Source: a melting point compilation (Tetko et al.; mined from patent text by program, amines drawn as free bases though some values may be those of a salt)

Row | SMILES | melting point
1 | CC(C)(C)OC(=O)NC1CCCCc2cc(OCC3CCCCC3)c(C(N)=O)cc21 (stereo not given) | 193 to 194 °C
2 | Cc1cc(Cn2c(O)nc3c(N)nc(C)c(C)c32)on1 | > 300 °C
3 | COc1cc(COc2nn(-c3ccccc3)cc2/C=C/c2cnco2)ccc1OCc1nc(-c2ccco2)oc1C | 137 to 138 °C
4 | CN1CCN(c2nc3sc4c(NCc5ccccn5)ncnc4c3c3c2COC(C)(C)C3)CC1 | 218 to 219 °C
5 | CCC(C(=O)O)N(C(=O)c1cn(-c2ccc(F)cc2F)nc1C)c1ccc(OCC(C)(C)C)c(C#N)c1 (stereo not given) | 110 °C
6 | COc1cc(N)c(Cl)cc1C(=O)NCC1CCN(CCCCC(=O)c2ccc(O)cc2)CC1 | 154 to 156 °C
7 | Cc1c(F)c(N2CCN(C)CC2)c(C)c2c1c(=O)c(C(=O)O)cn2C1CC1 | 205 to 206 °C
8 | CN(C)C1(c2ccccc2)CCC(CNC(=O)NCCCc2ccccc2)CC1 (stereo not given) | 100 to 110 °C
9 | COC(=O)[C@H](CC(C)C)NC(=O)CCC(=O)Nc1ccc(Nc2ccccc2)cc1 | 134 to 135 °C
10 | Nc1nc(OCCc2ccccc2Cl)nc2c1ncn2C1OC(CO)C(O)C1O (stereo not given) | 158 to 161 °C
11 | CCc1ccc2c(c1)C=Cc1cc(C)ccc1C2c1cn(Cc2ccc(C(=O)O)o2)c(=O)[nH]c1=S (stereo not given) | 165 °C
12 | Cc1cccc2c(N3CCSCC3)nc(Cl)cc12 | 134 to 136 °C
13 | Cc1nc(-c2cn(CC3CC3)nn2)sc1C(=O)NCc1cccnc1 | 140 to 141 °C
14 | CNC(=NCCSCc1cc(CN2CCCCC2)ccn1)NC#N | 79 to 81 °C
15 | COCCOCCOC(=O)/C=C/C(=O)/C=C/c1cccc(OC)c1 | 59 to 60 °C
16 | CC(C)(CCCCCCCCCCCC(C)(C)C(=O)O)C(=O)O | 95 to 96 °C
17 | CN1C(=O)N(C)C(c2c(C(C)(C)C)cc(O)cc2C(C)(C)C)N(C)C1=O | 194 to 196 °C
18 | CN(C)CCCCCCOc1ccc(C(=O)c2ccc(F)cc2)cc1 | 37 to 38 °C
19 | CCCC(=O)OCCOc1ccc2oc3cc(C#N)ccc3c(=O)c2c1 | 145 to 147 °C
20 | Cc1ccc(-c2ccccc2-c2nn[nH]c2C#N)cc1 | 170 to 172 °C
21 | COc1cc2c(c(Cl)c1Cl)C(=O)C(C)(C(C)C)C2 (stereo not given) | 143 °C
22 | COc1cc(N)c(Cl)cc1C(=O)N[C@H]1CCN(CCCCNc2ncccn2)C[C@H]1OC (relative stereo) | 115 °C
23 | Cn1c([N+](=O)[O-])cnc1-c1nnc2ccc(N=C(N)CCO)nn12 | 191 to 192 °C
24 | Cc1ccc(CN2CCN3C(=O)OC(c4ccccc4)(c4ccccc4)C3C2)cc1 (stereo not given) | 154 to 155 °C

Row | SMILES | melting point
25 | Fc1ccc(COc2ncc(F)c(NCc3ccccc3F)n2)cc1 | 83 to 84 °C
26 | CC(=O)OC1CSC(Oc2cncc(-c3ccnc(Cl)c3)c2)C(OC(C)=O)C1OC(C)=O (stereo not given) | 105 to 108 °C
27 | C=CCOc1ccc(-c2nc3n(c2-c2ccc(OCC=C)cc2)CCS3)cc1 | 135 to 138 °C
28 | Cc1c(C)n(Cc2ccccc2)c2ncnc(Cl)c12 | 115 to 116 °C
29 | CC(C)C[C@@H](C(=O)N1CCN(C(c2ccc(F)cc2)c2ccc(F)cc2)CC1)N(C)C1CCOCC1 | 56 to 65 °C
30 | CCOC(=O)/C=C(C)/C=C/C=C(C)/C=C/c1c(C)cc(OC(F)(F)F)c(C)c1C | 47 to 49 °C
31 | OCC(CCNC1CCC(c2ccc(OCc3ccccc3)cc2)CC1)c1ccccc1 (racemic) | 140 to 142 °C
32 | CCc1nc2c(N)nc3cc(CCC(=O)N4CCOCC4)ccc3c2n1CC(C)(C)O | 237 to 239 °C
33 | CNc1cc(Oc2ccc(NC(=O)Nc3ccc(Br)c(C(F)(F)F)c3)cc2)ncn1 | 161 to 164 °C
34 | N=C(NC(c1ccccc1)c1ccccc1)N1CCOCC1 | 122 to 124 °C
35 | NC(=O)c1cc([N+](=O)[O-])ccc1SSc1ccc([N+](=O)[O-])cc1C(N)=O | 266 to 269 °C
36 | O=C(NN1CCCCC1)c1nn(-c2ccc(Cl)cc2Cl)c2c1CCc1sc(Br)cc1-2 | 145 °C
37 | O=[N+]([O-])N=C1N(Cc2ccc(Cl)nc2)CCN1[N+](=O)[O-] | 158 °C
38 | CC(C)Cn1c(CO)c(-c2cccc(F)c2)c2cc(OCc3ccccc3)ccc2c1=O | 146 °C
39 | COC(=O)c1sccc1Nc1ccnc2c(Cl)cccc12 | 226 °C
40 | O=C(Cc1ccc(OCc2ccccc2)cc1)NC1(C(=O)O)Cc2ccc(-c3ccc(Cl)cc3)cc2C1 (stereo not given) | 234 °C
41 | CSc1nc(Cl)cc2cnc(C)n12 | 153 to 155 °C
42 | CC(=O)Nc1c([N+](=O)[O-])cc(C)c(OC(F)F)c1C | 184 to 185 °C
43 | Clc1ccc(-c2cc(C3CCN(Cc4ccccc4)CC3)n[nH]2)cc1 | 164 to 167 °C
44 | COC(=O)c1cc(NC(C)=O)c(F)c(-c2ccc(Cl)c(OC)c2F)n1 | 189 to 191 °C
45 | O=C1c2c(Cl)cccc2-n2cnc(-c3nc(C4CCC4)no3)c2[C@@H]2CCCN12 | 183 to 185 °C
46 | CCCCN1CCC2(CC1)OC(=O)c1ccccc12 | 60 to 62 °C
47 | CC(=O)Oc1cccnc1-n1ccnc1S(=O)Cc1ccccc1N1CCOCC1 (stereo not given) | 104 to 107 °C
48 | COc1cc(NC(=O)CC23CC4CC(CC(C4)C2)C3)c(C)c([N+](=O)[O-])c1 | 141 to 142 °C

Row | SMILES | melting point
49 | COc1ccc(-c2nc(CCC(=O)O)oc2-c2ccccc2)cc1 | 118 to 120 °C
50 | Cc1cccc(NC(=O)C(=O)OCC#CI)c1 | 170 to 172 °C
51 | Oc1ccc(-c2nc3cc(O)cc(Br)c3o2)cc1 | 139 to 141 °C
52 | CCCN(CCC)S(=O)(=O)c1cc(-c2csc(=Nc3ccc(C)cc3C)n2C)ccc1Cl | 139 to 141 °C
53 | CN(C)CCC1(CO)c2ccccc2N(C)c2ccc(Cl)cc21 (stereo not given) | 100 °C
54 | CCOC(=O)C1=C(C)NC(N=CN(C)C)=C(C(=O)OCC)C1c1cccc(OC)c1 (stereo not given) | 136 °C
55 | CCn1ncc2c3noc(-c4ccc(OC)cc4)c3cnc21 | 215 to 216 °C
56 | Cc1nn2c(-c3cc(Cl)ccc3Cl)ccnc2c1C#N | 234 to 236 °C
57 | COc1ccc(/C=C(/C#N)c2cc(OC)c(OC)c(OC)c2)cc1N | 144 to 145 °C
58 | CN1C2C=C(c3ccc(F)cc3)CC1CC2 (stereo not given) | 62 to 63 °C
59 | Cc1cc(S(=O)(=O)O)ccc1OCc1ccccc1C(=O)O | 242 to 244 °C
60 | COC1(OCCc2nc(C(C)C)c(Sc3cc(Cl)cc(Cl)c3)n2C)c2ccccc2-c2ccccc21 | 130 to 131 °C
61 | CN(C)CC1CCn2c(c(C3=C(c4csc5ccccc45)C(=O)NC3=O)c3ccccc32)C1 (stereo not given) | 285 to 286 °C
62 | CCOC(=O)COc1nnc(-c2ccc3c(c2)CCO3)o1 | 103 to 104 °C
63 | N#CCCCCCn1nc(-c2c(-c3ccccc3)nn3ccccc23)ccc1=O | 120 to 122 °C
64 | CCCN(CCC)[C@H]1Cc2c[nH]c3ccc(-c4nc(-c5ccccc5)no4)c(c23)C1 | 154 to 155 °C
65 | N#CC1=C(Nc2ccc(F)cc2)CCC1 | 100 to 102 °C
66 | CNS(=O)(=O)c1cc(O)ccc1OC(=O)c1ccccc1 | 168 to 170 °C
67 | Cc1nn([N+](=O)[O-])cc1-c1ncc([N+](=O)[O-])n1C | 148 °C
68 | CCOCc1nc2c(N)nc3ccccc3c2n1NCCCNS(C)(=O)=O | 148 to 150 °C
69 | CS(=O)c1cc2n(c1C(=O)c1ccc(Br)cc1)CCC2C(=O)O (stereo not given) | 226 to 227 °C
70 | CCOc1ccc(N)c(S)c1 | 104 °C
71 | OC1CCc2cc(F)cc(F)c21 (stereo not given) | 102 to 103 °C
72 | O=c1oc2cc(O)cc(O)c2c(O)c1C1=CCOc2oc3ccccc3c(=O)c21 | 254 to 256 °C

Row | SMILES | melting point
73 | C[C@@H](NC(=O)c1c[nH]c2ncc(-c3nn(C)c4cc(Cl)ccc34)nc12)C(=O)N1CC(F)C1 | 257 to 260 °C
74 | CN1CCN(CCO)C1=Nc1ccccc1N1CCOCC1 | 129 to 131 °C
75 | CCn1c(=O)c2[nH]c(/C=C/c3ccc(F)cc3)nc2n(CC)c1=O | > 270 °C
76 | CC1=C(C)C(=O)C(CN2C(=O)[C@H]3CCC[C@H]3N(C(=O)CN3C(=O)c4ccccc4C3=O)c3ccccc32)=C(C)C1=O (relative stereo) | 258 to 260 °C
77 | CNC(=O)c1nc(-c2ccccc2)c(-c2ccc(=O)n(C(C)C)n2)s1 | 165 to 168 °C
78 | Cc1c(C(=O)N(C)c2ccc(N3CCC(O)CC3)c(C#N)c2)cnn1-c1ccc(F)cc1 | 211 to 212 °C
79 | COc1cccc(NC(=O)c2cc(C#N)cc(C)n2)c1 | 189 °C
80 | COc1ccc(NC(=O)c2ccc(-c3ccc(-c4noc(C)n4)cc3C)cc2)cc1C=CCN(C)C | 220 to 221 °C
81 | N#Cc1cn(-c2ccc([N+](=O)[O-])cc2)nc1[N+](=O)[O-] | 172 to 175 °C
82 | CC(C)(Oc1ccc(OCc2nc(-c3ccc(C(F)(F)F)cc3)no2)cc1)C(=O)O | 164 °C
83 | COc1ccc2c(c1)c(-c1cc3nccnc3[nH]1)cn2CCO | 270 to 273 °C
84 | COc1cc(/C=C/c2cc(/C=C/c3ccc4cc[nH]c4c3)n[nH]2)ccc1OCc1ccccn1 | 236 to 243 °C
85 | CCCCCCCCCC[C@@]1(C)OO[C@@H]2C[C@H]1CC(=O)[C@@H]2C | 40 °C
86 | CC(F)(F)c1cccc(C[C@@H](NC(=O)c2cccc3c2C=CCCC3)[C@@H](O)c2ccc(F)cc2)c1 (racemic) | 170 to 171 °C
87 | CC(C)(C)OC(=O)N1CC=C(c2ccc3[nH]c(=O)[nH]c3c2)CC1 | 244 to 245 °C
88 | N#Cc1ccc2[nH]cc(CCCCN3CCN(c4ccc5oc(C(=O)NO)cc5c4)CC3)c2c1 | 198 to 199 °C
89 | CSc1ccc(C2=NC[C@@H](O)[C@H](c3ccccc3)O2)cc1 (racemic) | 130 °C
90 | CC(=O)N(N1C(=O)C(NC(=O)Nc2cccc(C)c2)CC(c2ccccc2)CC1c1ccccc1)C(C)(C)C (single isomer, unassigned; (-)) | 140 to 150 °C
91 | C=CCCc1ccc(NC(=O)OCc2ccccc2)c(O)n1 | 179 to 180 °C
92 | CCC(OC(C)=O)c1ccc(Cl)c2nc3n(c12)CCCN3c1cnc(N(C)C)cc1C (stereo not given) | 159 to 160 °C
93 | CN1C(=O)C(CC(=O)Nc2ccc(Cl)cc2)N=C(c2ccccc2)c2ccccc21 (stereo not given) | 238 to 240 °C
94 | COc1c(C)c(C)c(OC)c(CCCOc2ccc(CC3SC(=O)NC3=O)cc2)c1C (stereo not given) | 111 to 113 °C
95 | COc1ccc2[nH]c3c(C(=O)Nc4ccc(CCCCN(C)Cc5ccc(OC)c(OC)c5)cc4)cccc3c(=O)c2c1 | 172 °C
